# Assay results taken from patent publication US20050065212A1, “Use of at least one 10-hydroxy-2-decenoic acid derivative in compositions for treating the cuteous signs of aging” (priority 2001, published 2005).
# Legend:
# [1] = tested on: interstitial collagenase (type-1 metalloprotease, MMP-1) production by HT1080 cells; test: Production of interstitial collagenase in HT1080 cell culture (ELISA, Biotrack human MMP1); format: cell-based; settings: for percentage of reduction of the production of interstitial collagenase relative to the control: compound 25 μg/ml, culture medium 96 hours after contact
# Experimental: (§1) The effect of 2-dimethylaminoethyl 10-hydroxy-2-decenoate on the production of interstitial collagenase was evaluated in a culture model of A2058 cells (derived from human melanomas: Templeton N. S. et al. 1990; Cancer Res., 50:5431-5431) and in a culture model of HT1080 cells derived from a human fibrosarcoma (American type Culture Collection: reference CCL 121).
# (§2) The A2058 cells constitutively express and secrete type-1 metalloprotease. The HT1080 cells express little type-1 metalloprotease in the basal state, but this expression is increased in the presence of TPA.
# (§3) The cells are incubated in an MEM medium without phenol red, containing amino acids at a concentration of 2 mM, sodium pyruvate at a concentration of 1 mM and calf serum containing 10% […]. They are then cultured at a density of 20 000 cells per well in the 24 wells of a multiwell plate.
# (§4) Twenty-four hours after culturing, the cells are placed in contact with 2-dimethylaminoethyl 10-hydroxy-2-decenoate at a concentration of 25 μg/ml. The production of the interstitial collagenase is evaluated 96 hours later in the culture medium. This is performed using an ELISA kit (Biotrack human MMP1; Amersham).
# (§5) The results are expressed as a percentage of reduction of the production of interstitial collagenase relative to the control, i.e. relative to culturing performed under the same conditions in the absence of derivative.
# [2] = tested on: interstitial collagenase (type-1 metalloprotease, MMP-1) production by A2058 cells; test: Production of interstitial collagenase in A2058 cell culture (ELISA, Biotrack human MMP1); format: cell-based
# Experimental: as §1, §2, §3, §4, §5
compound,measurement,setting,value
CN(C)CCOC(=O)/C=C/CCCCCCCO [2-dimethylaminoethyl 10-hydroxy-2-decenoate],percentage of reduction of the production of interstitial collagenase relative to the control,[1]; HT1080 with TPA,50%
same,percentage of reduction of the production of interstitial collagenase relative to the control,[1]; HT1080 without TPA,55%
same,effect on production of interstitial collagenase (in words),"[1]; HT61080 cells as printed, dose of 25 μg/ml",reduces the production of interstitial collagenase
same,percentage of reduction of the production of interstitial collagenase relative to the control,"[2]; A2058 cells, compound 25 μg/ml, culture medium 96 hours after contact",70%
same,effect on production of interstitial collagenase (in words),"[2]; A 2058 cells, dose of 25 μg/ml",reduces the production of interstitial collagenase
